Reference: US11685729B2, “C5a receptor modulators” (IDORSIA PHARMACEUTICALS LTD., priority 2018, dated 2023)

biological target: C5AR1 (Homo sapiens (Human), UniProt P21730); test: In vitro assay: PathHunter beta-arrestin antagonist assay in CHO-K1 C5AR1 beta-arrestin cell line, stimulated with C5a agonist; details: read-out: C5aR IC50; CHO-K1 C5AR1 beta-arrestin cell line; 1-10 nM C5a agonist; geometric mean values
Sequence (P21730 whole entry): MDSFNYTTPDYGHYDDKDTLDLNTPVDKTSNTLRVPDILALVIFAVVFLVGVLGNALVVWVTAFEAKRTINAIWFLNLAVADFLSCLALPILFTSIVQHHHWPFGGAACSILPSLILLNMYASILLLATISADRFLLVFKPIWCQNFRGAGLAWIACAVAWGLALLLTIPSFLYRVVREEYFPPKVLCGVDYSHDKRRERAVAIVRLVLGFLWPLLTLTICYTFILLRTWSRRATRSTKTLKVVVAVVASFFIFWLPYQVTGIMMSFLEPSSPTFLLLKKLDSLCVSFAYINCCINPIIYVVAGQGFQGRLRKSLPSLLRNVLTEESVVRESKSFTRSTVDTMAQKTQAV
Protocol: 5 μl Antagonist at 6-fold end concentration or DMSO control is added to assay medium and subsequently 5 μl 1-10 nM C5a agonist at 6 fold end concentration. Cells are centrifuged for 1 min at 1000 rpm and incubated for 1.5 hour in at 37° C. Plates are equilibrated at room temperature for several minutes before adding 12 μI/well Detection Reagent (PathHunter Detection Kit, DiscoverX, Cat #93-0001). Plates are centrifuged for 1 min at 1000 rpm and incubated for 45 minutes at RT before being measured on a Fluostar Optima, BMG Labtech. IC50 values are calculated from a serial dilution range of antagonist using inhouse software and given in nmol/l.
The calculated IC50 values may fluctuate depending on the daily cellular assay performance. […] Average IC50 values from several measurements are given as geometric mean values.

Cc1cccc(F)c1N1CC[C@@H](N2Cc3ccccc3N(Cc3ccccc3C(F)(F)F)C2=O)C1 [Example 26, 3-[(R)-1-(2-Fluoro-6-methyl-phenyl)-pyrrolidin-3-yl]-1-(2-trifluoromethyl-benzyl)-3,4-dihydro-1H-quinazolin-2-one] and COc1cccc(C)c1N1CC[C@@H](N2Cc3ccccc3N(Cc3ccccc3C(F)(F)F)C2=O)C1 [Example 27, 3-[(R)-1-(2-Methoxy-6-methyl-phenyl)-pyrrolidin-3-yl]-1-(2-trifluoromethyl-benzyl)-3,4-dihydro-1H-quinazolin-2-one] are within 1.5-fold of each other in IC50: 35 nM for the first, 37 nM for the second.

Cc1ccnc(C)c1N1CCC(N2Cc3ccccc3N(Cc3ccccc3C(F)(F)F)C2=O)CC1 [Example 28, 3-(2′,4′-Dimethyl-3,4,5,6-tetrahydro-2H-[1,3′]bipyridinyl-4-yl)-1-(2-trifluoromethyl-benzyl)-3,4-dihydro-1H-quinazolin-2-one] and Cc1ccnc(C)c1N1CC[C@@H](N2Cc3ccccc3N(Cc3ccccc3C(F)(F)F)C2=O)C1 [Example 32, 3-[(R)-1-(2,4-Dimethyl-pyridin-3-yl)-pyrrolidin-3-yl]-1-(2-trifluoromethyl-benzyl)-3,4-dihydro-1H-quinazolin-2-one] are within 1.5-fold of each other in IC50: 287 nM for the first, 280 nM for the second.

COc1nccc(C)c1N1CCC(N2Cc3ccccc3N(Cc3ccccc3C(F)(F)F)C2=O)CC1 [Example 29, 3-(2′-Methoxy-4′-methyl-3,4,5,6-tetrahydro-2H-[1,3′]bipyridinyl-4-yl)-1-(2-trifluoromethyl-benzyl)-3,4-dihydro-1H-quinazolin-2-one] and COc1nccc(C)c1N1CC[C@@H](N2Cc3ccccc3N(Cc3ccccc3C(F)(F)F)C2=O)C1 [Example 31, 3-[(R)-1-(2-Methoxy-4-methyl-pyridin-3-yl)-pyrrolidin-3-yl]-1-(2-trifluoromethyl-benzyl)-3,4-dihydro-1H-quinazolin-2-one] are within 1.5-fold of each other in IC50: 35 nM for the first, 37 nM for the second.

Cc1ccnc(F)c1N1CCC(N2Cc3ccccc3N(Cc3ccccc3C(F)(F)F)C2=O)CC1 [Example 30, 3-(2′-Fluoro-4′-methyl-3,4,5,6-tetrahydro-2H-[1,3′]bipyridinyl-4-yl)-1-(2-trifluoromethyl-benzyl)-3,4-dihydro-1H-quinazolin-2-one] and Cc1ccnc(F)c1N1CC[C@@H](N2Cc3ccccc3N(Cc3ccccc3C(F)(F)F)C2=O)C1 [Example 33, 3-[(R)-1-(2-Fluoro-4-methyl-pyridin-3-yl)-pyrrolidin-3-yl]-1-(2-trifluoromethyl-benzyl)-3,4-dihydro-1H-quinazolin-2-one] are within 1.5-fold of each other in IC50: 45 nM for the first, 43 nM for the second.

First: COc1ccccc1CN1C(=O)N([C@@H]2CCN(c3c(C)cccc3C)C2)Cc2ccccc21 [Example 34, 3-[(R)-1-(2,6-Dimethyl-phenyl)-pyrrolidin-3-yl]-1-(2-methoxy-benzyl)-3,4-dihydro-1H-quinazolin-2-one]
Second: COc1ccccc1CN1C(=O)N(C2CCN(c3c(C)cccc3C)CC2)Cc2ccccc21 [Example 36, 3-[1-(2,6-Dimethyl-phenyl)-piperidin-4-yl]-1-(2-methoxy-benzyl)-3,4-dihydro-1H-quinazolin-2-one]
The IC50 of the first is 1.7-fold lower: 116 nM for the first, 199 nM for the second. The first is the more potent here.

Going from COc1ccccc1CN1C(=O)N([C@@H]2CCN(c3c(C)cccc3F)C2)Cc2ccccc21 [Example 35, 3-[(R)-1-(2-Fluoro-6-methyl-phenyl)-pyrrolidin-3-yl]-1-(2-methoxy-benzyl)-3,4-dihydro-1H-quinazolin-2-one] to COc1ccccc1CN1C(=O)N(C2CCN(c3c(C)cccc3F)CC2)Cc2ccccc21 [Example 37, 3-[1-(2-Fluoro-6-methyl-phenyl)-piperidin-4-yl]-1-(2-methoxy-benzyl)-3,4-dihydro-1H-quinazolin-2-one], the IC50 rises from 43 nM to 138 nM (3.2-fold). The first is the more potent here.

Compound N#Cc1cccc(F)c1N1CCC(N2Cc3ccccc3N(Cc3nccnc3C(F)(F)F)C2=O)CC1 [Example 38, 3-Fluoro-2-{4-[2-oxo-1-(3-trifluoromethyl-pyrazin-2-ylmethyl)-1,4-dihydro-2H-quinazolin-3-yl]-piperidin-1-yl}-benzonitrile] has an IC50 of 211 nM.
